Test [1] addresses Proto-oncogene tyrosine-protein kinase Src (Homo sapiens, UniProt P12931). The test can be described thus: Inhibition of Src.
For test [2], the target named is Tyrosine-protein kinase ABL1 (Homo sapiens, UniProt P00519).
For test [3], the target named is Tyrosine-protein kinase ABL1 (Homo sapiens, UniProt P00519, T315I). The test can be described thus: Inhibition of Abl-T315I mutant.
The subject of test [4] is Bcr-Abl. The test can be described thus: Apoptosis inducing activity in Bcr-Abl cells assessed as induction of DNA fragmentation at 2 uM after 24 hrs. Type of test: functional, cell-based. The settings on record: Homo sapiens.
Test [5] has as its system BaF3. The test can be described thus: Apoptosis inducing activity in Ba/F3 cells assessed as caspase 3 activation after 4 hrs. It counts as functional, cell-based. The settings on record: Mus musculus.
Test [6] concerns Bcr-Abl. The test can be described thus: Apoptosis inducing activity in Bcr-Abl cells assessed as caspase 3 activation after 4 hrs. It counts as functional, cell-based. The note with it: Homo sapiens.
The subject of test [7] is BaF3. The test can be described thus: Apoptosis inducing activity in Ba/F3 cells assessed as induction of DNA fragmentation at 2 uM after 24 hrs. It counts as functional, cell-based. The note with it: Mus musculus.
Test [8] deals with BaF3. Description: Blockade of Bcr-Abl-T315I mutant expressed in mouse Ba/F3 cells assessed as inhibition of […] phosphorylation. Type of test: cell-based. The settings on record: Homo sapiens.
The species named for test [9] is Homo sapiens. Description: Apoptosis inducing activity in Bcr-Abl-T315I cells assessed as induction of DNA fragmentation at 2 uM after 24 hrs. Type of test: functional, cell-based.
The species named for test [10] is Homo sapiens. Description: Apoptosis inducing effect in Bcr-Abl-T315I cells assessed as caspase 3 activation after 4 hrs. Type of test: functional, cell-based.
Test [11] deals with BaF3. The test can be described thus: Blockade of full length human Bcr-Abl expressed in mouse Ba/F3 cells assessed as inhibition of STAT5 phosphorylation. Type of test: cell-based.

As usually defined, the Ki is the dissociation constant of the complex between target and ligand, obtained from inhibition or displacement. Higher therefore signals a looser hold on the target.

SMILES strings stand for the structures. Calls of active or inactive are those of the source. No cut-off for these calls is given here.

Chain of Proto-oncogene tyrosine-protein kinase Src (P12931 2-536 limits assumed): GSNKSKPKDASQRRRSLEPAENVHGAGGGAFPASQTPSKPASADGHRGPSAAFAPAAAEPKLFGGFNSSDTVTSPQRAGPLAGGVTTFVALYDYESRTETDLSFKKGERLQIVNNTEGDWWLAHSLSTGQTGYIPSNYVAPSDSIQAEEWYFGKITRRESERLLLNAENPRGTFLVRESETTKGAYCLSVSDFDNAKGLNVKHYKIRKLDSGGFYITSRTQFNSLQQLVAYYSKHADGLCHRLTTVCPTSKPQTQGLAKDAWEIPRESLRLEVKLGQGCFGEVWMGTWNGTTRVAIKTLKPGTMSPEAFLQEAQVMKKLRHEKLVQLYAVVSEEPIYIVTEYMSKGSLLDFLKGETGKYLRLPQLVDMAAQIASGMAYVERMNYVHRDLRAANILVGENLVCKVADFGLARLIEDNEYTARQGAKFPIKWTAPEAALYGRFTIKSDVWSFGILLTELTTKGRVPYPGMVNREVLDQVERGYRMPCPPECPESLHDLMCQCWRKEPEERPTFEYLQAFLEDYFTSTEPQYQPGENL

Take `Cc1cc(-c2cc(O)ccc2Cl)cc2nnc(Nc3ccc(OCCN4CCCC4)cc3)nc12`: the affinity in [1] corresponds to a Ki of 1.3 nM.
With `Cc1cccc(C)c1-c1cc(C)c2nc(Nc3ccc(OCCN4CCCC4)cc3)nnc2c1`, the results for the Ki in test [2] and in test [3] were 11 nM and 4240 nM, respectively.
Regarding `Cc1cc(-c2cc(O)ccc2Cl)cc2nnc(Nc3ccc(S(=O)(=O)NCCN4CCCC4)cc3)nc12`, the result in the test with Bcr-Abl [4], with Bcr-Abl [6], with BaF3 [8], in the test filed under Homo sapiens [9], in the test listed under Homo sapiens [10] and with BaF3 [11] was Active. In addition, the result with BaF3 [5] and in the test on BaF3 [7] was inactive.
